The experiment concerns the target T1, human GPR119 receptor (Homo sapiens, UniProt Q8TDV5).
T1 construct: host or cells: GeneBLAzer T-Rex GPR 119 CHO-K1 DA cells (CHO-K1)
T1 sequence (Q8TDV5 1-335): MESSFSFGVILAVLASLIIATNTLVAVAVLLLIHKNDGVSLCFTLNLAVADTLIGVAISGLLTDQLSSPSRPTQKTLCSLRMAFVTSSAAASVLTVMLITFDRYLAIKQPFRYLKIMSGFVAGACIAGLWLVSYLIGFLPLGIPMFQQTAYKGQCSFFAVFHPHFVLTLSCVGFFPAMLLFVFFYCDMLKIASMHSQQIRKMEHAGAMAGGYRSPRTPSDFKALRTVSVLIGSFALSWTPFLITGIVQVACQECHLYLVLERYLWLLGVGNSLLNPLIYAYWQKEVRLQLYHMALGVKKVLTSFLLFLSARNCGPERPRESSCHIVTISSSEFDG
As to the kind of experiment: Activity test for human GPR119 receptor (GeneBLAzer T-Rex GPR 119 CHO-K1 DA cells). In kind it is cell-based. The conditions noted are these: for EC50: human GPR119 receptor expressing CHO-K1 cells, 5 hours treatment, read-out: hGPR119 EC50; for activity for human GPR119 receptor (in words): judgement on the EC50 values of Table 11. The protocol: 1. Human GPR119 Receptor Cell
As a human GPR119 receptor expression cell for this test, the cell line “GeneBLAzer™ T-Rex GPR 119 CHO-K1 DA cells” that is commercially available from Invitrogen, was used. The cell was incubated in the DMEM media containing 1% dialyzed fetal bovine serum etc. The cell incubator was kept at constant temperature and constant humidity of 37° C., 5% CO2.
2. Activity Test for Human GPR119 Receptor
The human GPR119 receptor expressing cell was used to this test. Each of test compounds was added to be final concentrations of 0.1, 1, 10 μM in 96 well and tested in duplicate. A fixed amount of cell was added to each well of 96 well separately, and then treated with the test compound for 5 hours. After treatment of color development agent for 2 hours, the fluorescence value was determined with plate reader. To the luminous wavelength of control well, which was not treated with the sample, but in which only a vehicle […] was contained, the ratio of the luminous wavelength of test well, which was treated with the sample, was calculated, and then converted to obtain EC50 value.
3. Statistical Processing
All the results were expressed as mean±SD, and each test groups and the control group were compared using student's t-test to adjudge the effects of each test groups.

Broadly, the EC50 is the concentration at which the effect is half-maximal.

As to `NC(=O)[C@@H]1C[C@@H](O)CN1C(=O)c1ccc(-c2cnc(OCC3CCN(CC4(C(F)(F)F)CCC4)CC3)cn2)cc1F` [Compound 1200, (2S,4R)-1-(2-fluoro-4-(5-((1-((1-(trifluoromethyl)cyclobutyl)methyl)piperidin-4-yl)methoxy)pyrazin-2-yl)benzoyl)-4-hydroxypyrrolidin-2-carboxamide], the EC50 turned out to be 800 pM and the “activity for human GPR119 receptor (in words)” value (from here on “activity”) is reported as “excellent activity”. As to `CC(C)(F)CN1CCC(COc2cnc(-c3ccc(C(=O)N4CCC[C@@]4(C)C(N)=O)c(F)c3)nc2)CC1` [Compound 1206, (S)-1-(2-fluoro-4-(5-((1-(2-fluoro-2-methylpropyl)piperidin-4-yl)methoxy)pyrimidin-2-yl)benzoyl)-2-methylpyrrolidin-2-carboxamide], the EC50 is 9000 pM.

`NC(=O)[C@@H]1C[C@H](F)CN1C(=O)c1ccc(-c2cnc(OCC3CCN(CC4(C(F)(F)F)CCC4)CC3)cn2)cc1` [Compound 1209, (2S,4S)-4-fluoro-1-(4-(5-((1-((1-(trifluoromethyl)cyclobutyl)methyl)piperidin-4-yl)methoxy)pyrazin-2-yl)benzoyl)pyrrolidin-2-carboxamide]: the EC50 worked out at 90 pM. On the same count and under the same terms, to `CCC(F)(CC)CN1CCC(COc2ccc(-c3ccc(C(=O)N4C[C@@H](F)C[C@H]4C(N)=O)cc3F)cc2)CC1` [Compound 1210, (2S,4S)-1-(4′-((1-(2-ethyl-2-fluorobutyl)piperidin-4-yl)methoxy)-2-fluorobiphenylcarbonyl)-4-fluoropyrrolidin-2-carboxamide] belongs 200 pM; to `CCC(F)(CC)CN1CCC(COc2ccc(-c3ccc(C(=O)N4C[C@@H](F)C[C@H]4C(N)=O)c(F)c3)cc2)CC1` [Compound 1211, (2S,4S)-1-(4′-((1-(2-ethyl-2-fluorobutyl)piperidin-4-yl)methoxy)-3-fluorobiphenylcarbonyl)-4-fluoropyrrolidin-2-carboxamide], 80 pM; to `NC(=O)[C@@H]1[C@@H](O)CCN1C(=O)c1ccc(-c2ccc(OCC3CCN(CC4(C(F)(F)F)CCC4)CC3)cc2)c(F)c1` [Compound 1220, (2S,3S)-1-(2-fluoro-4′-((1-((1-(trifluoromethyl)cyclobutyl)methyl)piperidin-4-yl)methoxy)biphenylcarbonyl)-3-hydroxypyrrolidin-2-carboxamide], 100 pM.

Take `CCC(F)(F)CN1CCC(COc2ccc(-c3ccc(C(=O)N4CCC[C@H]4C(N)=O)c(F)c3)cn2)CC1` [Compound 1238, (S)-1-(4-(6-((1-(2,2-difluorobutyl)piperidin-4-yl)methoxy)pyridin-3-yl)-2-fluorobenzoyl)pyrrolidin-2-carboxamide]: the 50% effective concentration (EC50) stood at 900 pM. On the same count and under the same terms, the same measure for `NC(=O)[C@@H]1CCCN1C(=O)c1ccc(-c2ccc(OCC3CCN(CC(F)(F)C(F)(F)F)CC3)cc2)cc1F` [Compound 1239, (S)-1-(3-fluoro-4′-((1-(2,2,3,3,3-pentafluoropropyl)piperidin-4-yl)methoxy)biphenylcarbonyl)pyrrolidin-2-carboxamide]: 100 pM; for `CCC(F)(CC)CN1CCC(COc2ccc(-c3ccc(C(=O)N4CC[C@H](O)[C@H]4C(N)=O)c(F)c3)cc2F)CC1` [Compound 1244, (2S,3S)-1-(4′-((1-(2-ethyl-2-fluorobutyl)piperidin-4-yl)methoxy)-3,3′-difluorobiphenylcarbonyl)-3-hydroxypyrrolidin-2-carboxamide]: 300 pM. Still for that read-out and setting: to `CCC(F)(CC)CN1CCC(COc2ccc(-c3ccc(C(=O)N4CC[C@H](O)[C@H]4C(N)=O)cc3)c(F)c2)CC1` [Compound 1245, (2S,3S)-1-(4′-((1-(2-ethyl-2-fluorobutyl)piperidin-4-yl)methoxy)-2′-fluorobiphenylcarbonyl)-3-hydroxypyrrolidin-2-carboxamide] belongs 1000 pM. On to `NC(=O)[C@@H]1[C@@H](O)CCN1C(=O)c1ccc(-c2cnc(OCC3CCN(CC4(C(F)(F)F)CCC4)CC3)cn2)cc1F` [Compound 1249, (2S,3S)-1-(2-fluoro-4-(5-((1-((1-(trifluoromethyl)cyclobutyl)methyl)piperidin-4-yl)methoxy)pyrazin-2-yl)benzoyl)-3-hydroxypyrrolidin-2-carboxamide], for which the EC50 was found to be 100 pM and the “activity” value is reported as “excellent activity”.

In the case of `NC(=O)[C@@H]1[C@@H](O)CCN1C(=O)c1ccc(-c2cnc(OCC3CCN(CC4(C(F)(F)F)CCC4)CC3)cn2)c(F)c1` [Compound 1253, (2S,3S)-1-(3-fluoro-4-(5-((1-((1-(trifluoromethyl)cyclobutyl)methyl)piperidin-4-yl)methoxy)pyrazin-2-yl)benzoyl)-3-hydroxypyrrolidin-2-carboxamide], the EC50 came out at 200 pM and the “activity” value is on record as “excellent activity”.

Consider `NC(=O)[C@@H]1C[C@@H](O)CN1C(=O)c1ccc(-c2ccc(OCC3CCN(CC4(C(F)(F)F)CCC4)CC3)cc2)c(F)c1` [Compound 1255], for which the EC50 amounted to 2000 pM and the “activity” value was “excellent activity”. Regarding `NC(=O)[C@@H]1C[C@@H](O)CN1C(=O)c1ccc(-c2ccc(OCC3CCN(CC(F)(F)C(F)(F)F)CC3)cc2)cc1F` [Compound 1256, (2S,4R)-1-(3-fluoro-4′-((1-(2,2,3,3,3-pentafluoropropyl)piperidin-4-yl)methoxy)biphenylcarbonyl)-4-hydroxypyrrolidin-2-carboxamide], the EC50 was 400 pM. Same read-out and setting: to `CCC(F)(CC)CN1CCC(COc2cnc(-c3ccc(C(=O)N4C[C@H](O)C[C@H]4C(N)=O)c(F)c3)nc2)CC1` [Compound 1257, (2S,4R)-1-(4-(5-((1-(2-ethyl-2-fluorobutyl)piperidin-4-yl)methoxy)pyrimidin-2-yl)-2-fluorobenzoyl)-4-hydroxypyrrolidin-2-carboxamide] belongs 10000 pM. For `C[C@@]1(C(N)=O)C[C@@H](O)CN1C(=O)c1ccc(-c2ccc(OCC3CCN(CC4(C(F)(F)F)CCC4)CC3)cc2)c(F)c1` [Compound 1258, (2S,4R)-1-(2-fluoro-4′-((1-((1-(trifluoromethyl)cyclobutyl)methyl)piperidin-4-yl)methoxy)biphenylcarbonyl)-4-hydroxy-2-methylpyrrolidin-2-carboxamide], the EC50 came out at 1000 pM. In the case of `CC(C)(F)CN1CCC(COc2ccc(-c3ccc(C(=O)N4CCC[C@@]4(C)C(N)=O)c(F)c3)cc2C#N)CC1` [Compound 1259, (S)-1-(3′-cyano-3-fluoro-4′-((1-(2-fluoro-2-methylpropyl)piperidin-4-yl)methoxy)biphenylcarbonyl)-2-methylpyrrolidin-2-carboxamide], the EC50 was found to be 5000 pM.

With `NC(=O)C1CC(O)CCN1C(=O)c1ccc(-c2cnc(OCC3CCN(CC4(C(F)(F)F)CCC4)CC3)cn2)cc1F` (centres unmarked) [Compound 1262, 1-(2-fluoro-4-(5-((1-((1-(trifluoromethyl)cyclobutyl)methyl)piperidin-4-yl)methoxy)pyrazin-2-yl)benzoyl)-4-hydroxypiperidin-2-carboxamide], the EC50 is 800 pM and the “activity” value is on record as “excellent activity”.

The values above are taken from US9776987B2, “Amide derivatives for GPR119 agonist” (CHONG KUN DANG PHARMACEUTICAL CORP., priority 2013, dated 2017).
